Measured values: ChEMBL document CHEMBL3244168, “Synthesis and antitumor activity of preactivated isophosphamide analogues bearing modified alkylating functionalities” (J Med Chem, 1978)
≈ marks a conversion by molar mass, not a printed value. Calls of active or inactive are those of the source. The rule behind the calls is not given here.

Tests used:
[1] = test system: L1210; test: Cytotoxicity against mouse L1210 cells assessed as growth inhibition after 72 hrs; assay type: functional; details: L1210, 72 h, read-out: ED50 (the source's name)
[2] = test system: L1210; test: Antileukemic activity against mouse L1210 cells allografted in ip dosed BDF1 mouse administered 24 hrs; assay type: functional
[3] = test system: L1210; test: Ratio of ILSmax to ILS30 for antileukemic activity against mouse L1210 cells allografted in ip dosed BDF1 mouse; assay type: functional
[4] = test system: L1210; test: Antileukemic activity against mouse L1210 cells allografted in ip dosed BDF1 mouse assessed as maximum tolerated dose for survival over 30 days administered 24 hrs; assay type: functional
[5] = test system: Mus musculus; test: Acute toxicity in iv dosed BDF1 mouse; assay type: organism-based; details: in vivo
[6] = test system: Mus musculus; test: Acute toxicity in ip dosed BDF1 mouse; assay type: organism-based; details: in vivo
[7] = test system: Mus musculus; test: Acute toxicity in po dosed BDF1 mouse; assay type: organism-based; details: in vivo
[8] = test system: Rattus norvegicus; test: Acute toxicity in iv dosed Wistar rat; assay type: organism-based; details: in vivo
[9] = test system: Rattus norvegicus; test: Acute toxicity in ip dosed Wistar rat; assay type: organism-based; details: in vivo
[10] = test system: Rattus norvegicus; test: Acute toxicity in po dosed Wistar rat; assay type: organism-based; details: in vivo
[11] = test system: L1210; test: Antileukemic activity against mouse L1210 cells allografted in BDF1 mouse assessed as mean survival time at 50 mg/kg, ip administered 24 hrs (Rvb 4.6 +/- 0.16 days); assay type: functional; details: route intraperitoneal
[12] = test system: L1210; test: Antileukemic activity against mouse L1210 cells allografted in BDF1 mouse assessed as mean survival time at 100 mg/kg, ip administered 24 hrs (Rvb 4.6 +/- 0.16 days); assay type: functional; details: route intraperitoneal
[13] = test system: L1210; test: Antileukemic activity against mouse L1210 cells allografted in BDF1 mouse assessed as mean survival time at 20 mg/kg, ip administered 24 hrs (Rvb 4.6 +/- 0.16 days); assay type: functional; details: route intraperitoneal
[14] = test system: L1210; test: Antileukemic activity against mouse L1210 cells allografted in BDF1 mouse assessed as mean survival time at 200 mg/kg, ip administered 24 hrs (Rvb 4.6 +/- 0.16 days); assay type: functional; details: route intraperitoneal
[15] = test system: L1210; test: Antileukemic activity against mouse L1210 cells allografted in BDF1 mouse assessed as increase in life span at 50 mg/kg, ip administered 24 hrs relative to control; assay type: functional; details: route intraperitoneal
[16] = test system: L1210; test: Antileukemic activity against mouse L1210 cells allografted in BDF1 mouse assessed as increase in life span at 100 mg/kg, ip administered 24 hrs relative to control; assay type: functional; details: route intraperitoneal
[17] = test system: L1210; test: Antileukemic activity against mouse L1210 cells allografted in BDF1 mouse assessed as increase in life span at 20 mg/kg, ip administered 24 hrs relative to control; assay type: functional; details: route intraperitoneal
[18] = test system: L1210; test: Antileukemic activity against mouse L1210 cells allografted in BDF1 mouse assessed as increase in life span at 200 mg/kg, ip administered 24 hrs relative to control; assay type: functional; details: route intraperitoneal
[19] = test system: L1210; test: Antileukemic activity against mouse L1210 cells allografted in iv dosed BDF1 mouse assessed as survival over 60 days administered 24 hrs; assay type: functional; details: read-out: MED
[20] = test system: L1210; test: Antileukemic activity against mouse L1210 cells allografted in ip dosed BDF1 mouse assessed as survival over 60 days administered 24 hrs; assay type: functional; details: read-out: MED
[21] = test system: L1210; test: Antileukemic activity against mouse L1210 cells allografted in po dosed BDF1 mouse assessed as survival over 60 days administered 24 hrs; assay type: functional; details: read-out: MED
[22] = test system: L1210; test: Antileukemic activity against mouse L1210 cells allografted in iv dosed BDF1 mouse assessed as maximum tolerated dose for survival over 60 days administered 24 hrs; assay type: functional
[23] = test system: L1210; test: Antileukemic activity against mouse L1210 cells allografted in ip dosed BDF1 mouse assessed as maximum tolerated dose for survival over 60 days administered 24 hrs; assay type: functional
[24] = test system: L1210; test: Antileukemic activity against mouse L1210 cells allografted in po dosed BDF1 mouse assessed as maximum tolerated dose for survival over 60 days administered 24 hrs; assay type: functional
[25] = test system: L1210; test: Ratio of Cmax to Cmin for antileukemic activity against mouse L1210 cells allografted in iv dosed BDF1 mouse assessed as survival over 60 days; assay type: functional
[26] = test system: L1210; test: Ratio of Cmax to Cmin for antileukemic activity against mouse L1210 cells allografted in ip dosed BDF1 mouse assessed as survival over 60 days; assay type: functional
[27] = test system: L1210; test: Ratio of Cmax to Cmin for antileukemic activity against mouse L1210 cells allografted in po dosed BDF1 mouse assessed as survival over 60 days; assay type: functional
[28] = test system: L1210; test: Antileukemic activity against mouse L1210 cells allografted in BDF1 mouse assessed as increase in life span at 400 mg/kg, ip administered 24 hrs relative to control
[29] = test system: L1210; test: Antileukemic activity against mouse L1210 cells allografted in BDF1 mouse assessed as mean survival time at 2 mg/kg, ip administered 24 hrs (Rvb 4.6 +/- 0.16 days); assay type: functional; details: route intraperitoneal
[30] = test system: L1210; test: Antileukemic activity against mouse L1210 cells allografted in BDF1 mouse assessed as mean survival time at 10 mg/kg, ip administered 24 hrs (Rvb 4.6 +/- 0.16 days); assay type: functional; details: route intraperitoneal
[31] = test system: L1210; test: Antileukemic activity against mouse L1210 cells allografted in BDF1 mouse assessed as increase in life span at 2 mg/kg, ip administered 24 hrs relative to control; assay type: functional; details: route intraperitoneal
[32] = test system: L1210; test: Antileukemic activity against mouse L1210 cells allografted in BDF1 mouse assessed as increase in life span at 10 mg/kg, ip administered 24 hrs relative to control; assay type: functional; details: route intraperitoneal
[33] = test system: L1210; test: Antileukemic activity against mouse L1210 cells allografted in BDF1 mouse assessed as increase in survivor over 30 days at 100 mg/kg, ip administered 24 hrs; assay type: functional, organism-based; design: dose 100 mg/kg

| Compound | EC50 [1] | ILS30 [2] | Ratio [3] | ILSmax [4] | MST [11] | MST [12] | ILS at 50 mg/kg [15] | ILS at 100 mg/kg [16] | minimal effective dose [19] | minimal effective dose [20] | minimal effective dose [21] | MTD [22] | MTD [23] | MTD [24] | Ratio [25] | Ratio [26] | Ratio [27] | also measured |
| --- | --- | --- | --- | --- | --- | --- | --- | --- | --- | --- | --- | --- | --- | --- | --- | --- | --- | --- |
| CS(=O)(=O)OCCN1C(OO)CCOP1(=O)NCCCl (configuration not stated) | 0.8 mg/L (≈ 2.27 µM) | 2 mg/kg | 38 | 75 mg/kg |  |  |  |  |  |  |  |  |  |  |  |  |  |  |
| O=P1(NCCCl)OCCC(OO)N1CCCl (configuration not stated) | 1.8 mg/L (≈ 6.14 µM) | 15 mg/kg | 7 | 100 mg/kg | 12.5 days | >23.8 days | 172% | > 416% | 90 mg/kg | 30 mg/kg | 400 mg/kg | 160 mg/kg | 70 mg/kg | 400 mg/kg | 1.8 | 2.3 | 1 | LD10 [5]: 220 mg/kg; LD10 [6]: 220 mg/kg; LD10 [7]: 1000 mg/kg; LD10 [8]: 250 mg/kg; LD10 [9]: 250 mg/kg; LD10 [10]: 800 mg/kg; MST [13]: 8.9 days; MST [14]: >26.5 days; ILS at 20 mg/kg [17]: 93%; ILS at 200 mg/kg [18]: > 476% |
| O=P1(N(CCCl)CCCl)NCCCO1 (configuration not stated) [CYCLOPHOSPHAMIDE ANHYDROUS] |  |  |  |  | 7.8 days | 12.4 days | 68% | 169% | 200 mg/kg | 100 mg/kg | 200 mg/kg | 200 mg/kg | 200 mg/kg | 200 mg/kg | 1 | 2 | 1 | MST [14]: >18.9 days; ILS at 200 mg/kg [18]: > 310%; ILS at 400 mg/kg [28]: > 283% |
| CCS(=O)(=O)OCCN(C)P1(=O)OCCC(OO)N1CCCl (configuration not stated) | 0.8 mg/L (≈ 2.1 µM) | 10 mg/kg | 8 | 80 mg/kg |  |  |  |  |  |  |  |  |  |  |  |  |  |  |
| CCS(=O)(=O)OCCN1C(OO)CCOP1(=O)N(C)CCCl (configuration not stated) | 1 mg/L (≈ 2.63 µM) | 5 mg/kg | 14 | 70 mg/kg |  |  |  |  |  |  |  |  |  |  |  |  |  |  |
| CN(CCOS(C)(=O)=O)P1(=O)OCCC(OO)N1CCCl (configuration not stated) | 0.5 mg/L (≈ 1.36 µM) | 3 mg/kg | 20 | 60 mg/kg |  |  |  |  |  |  |  |  |  |  |  |  |  |  |
| CN(CCCl)P1(=O)OCCC(OO)N1CCOS(C)(=O)=O (configuration not stated) | 0.8 mg/L (≈ 2.18 µM) | 2 mg/kg | 40 | 80 mg/kg | >26.1 days | >15.8 days | > 468% | > 242% | 15 mg/kg | 10 mg/kg | 50 mg/kg | 100 mg/kg | 100 mg/kg | 200 mg/kg | 6.6 | 10 | 4 | LD10 [5]: 120 mg/kg; LD10 [6]: 134 mg/kg; LD10 [7]: 284 mg/kg; LD10 [8]: 66 mg/kg; LD10 [9]: 41 mg/kg; LD10 [10]: 238 mg/kg; MST [29]: 6.6 days; MST [30]: 11.4 days; ILS at 2 mg/kg [31]: 44%; ILS at 10 mg/kg [32]: 147%; Activity [33]: Active |
